From US8182854B2, “Coffee drink composition” (Kao Corporation, priority 2004, dated 2012)
“Also recorded” adds a separate entry of the source.

System: hydrogen peroxide in urine
Assay: Amount of hydrogen peroxide in rat urine after forced p.o. administration (FOX assay)
Assay type: in vivo, SD rats
Experimental: (c) The coffees obtained above in (a) and (b) were each forcibly administered p.o. (10 mL/kg) to six-week-old male SD rats (n=4). Three hours after the administration, urine was collected and the amount of hydrogen peroxide in their urine was measured. The amount of hydrogen peroxide in urine was measured by FOX (ferrous ion oxidation-xylenol orange) assay. (b) To 7-week-old male SD rats (n=4), 2.4 g/kg of instant coffee (Nescafe decaffeinated) (1.6 mg/kg in terms of hydroxyhydroquinone) and 1.6 mg/kg of hydroxyhydroquinone were forcibly administered p.o, respectively. Prior to administration and three hours and six hours after administration, urine was collected from them and the amount of hydrogen peroxide in urine was measured as in Example 2. To seven-week-old male SD rats (n=3), hydroxyhydroquinone (0.1, 0.3, 1 and 3 mg/kg, respectively) was forcibly administered p.o. Prior to administration and three and six hours after administration, urine was collected from them and the amount of hydrogen peroxide in the urine was determined as in Example 2. (c) The coffees obtained above in (a) and (b) (each, 10 mL/kg) were forcibly administered p.o. to seven-week-old male SD rats (n=8). Prior to administration and three and six hours after the administration, urine was collected from them and the amount of hydrogen peroxide in the urine was measured as in Example 2.

## Oc1ccc(O)c(O)c1 [hydroxyhydroquinone]
Example 3, FIG. 3, 7-week-old male SD rats, p.o., 2.4 g/kg instant coffee or 1.6 mg/kg hydroxyhydroquinone, three hours after administration
  amount of hydrogen peroxide in urine: significant increase
Example 4, FIG. 4, seven-week-old male SD rats, hydroxyhydroquinone 0.1, 0.3, 1 and 3 mg/kg p.o., urine three and six hours after administration
  amount of hydrogen peroxide in the body (urine): increases the generation amount of hydrogen peroxide in the body; also recorded: increases dose-dependently
Example 4, FIG. 4, seven-week-old male SD rats, p.o.
  dose from which the amount of hydrogen peroxide in the body increases: ≥ 0.3 mg/kg
